The nature of data set [1]: H+/Na+ transport assay of bead-derived peptides (one-point).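 Also: relative to parent gramicidin A activity set to 1.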 It is filed as biochemical. The arrangement: key: relative activity; mean of two control wells = 1.00. The following applies: bead-derived peptide solution, EYPC/EYPG LUVs. In short, it runs like this:
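Pyranine (1.0 mM)-loaded LUVs containing egg yolk phosphatidylglycerol were prepared by film hydration, sonication and extrusion, then mixed with diluted bead-derived peptide in 96-well format and vortexed 30 min at room temperature. Fluorescence was normalized between untreated LUVs (0%) and Triton X-100 lysis (100%).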

The subject of data set [2] is P388 mouse leukemia cells. The following applies: 92 h. In short, it runs like this: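 First, library peptide stocks are diluted 250-fold in RPMI1640 with 10% heat-inactivated FBS. Next, they are mixed with P388 cells to give 1 × 10^4 cells/mL and incubated 92 h at 37 °C, 5% CO2. Finally, viability (%) is scored by WST-1 absorbance at 415 nm.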
Data set [3] deals with Streptococcus pyogenes SSI-9. Put plainly: Antibacterial activity assay of bead-derived peptides (three concentrations). It is filed as cell-based. Also noted: key: +++: inhibition by the 640-fold diluted peptide solution; ++: inhibition by the 160-fold diluted solution; +: inhibition by the 40-fold diluted solution; -: no inhibition. Conditions: S. pyogenes, bead-derived peptide solution, three concentrations. In short, it runs like this:
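Bead-derived library peptide stocks in DMSO were tested undiluted and after 4- and 16-fold DMSO dilution against S. pyogenes SSI-9 (2 × 10^5 CFU/well) in cation-adjusted Mueller Hinton Broth with 5% laked horse blood. After 18 h at 37 °C, wells were scored for precipitation of grown cells.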

Structures are written as SMILES. Where a SMILES comes first, the peptide text is derived from it. [ ]: non-standard residue; d: D form. The star is where a group is joined. NHCH2CH2OH = OCCN*; For = O=C*

On to `CC(C)C[C@@H](NC(=O)[C@H](C)NC(=O)CNC(=O)[C@@H](NC=O)C(C)C)C(=O)N[C@@H](C)C(=O)N[C@@H](C(=O)N[C@H](C(=O)N[C@@H](C(=O)N[C@@H](Cc1c[nH]c2ccccc12)C(=O)N[C@@H](C(=O)N[C@@H](Cc1c[nH]c2ccccc12)C(=O)N[C@H](CC(C)C)C(=O)N[C@@H](Cc1c[nH]c2ccccc12)C(=O)N[C@@H](C(=O)N[C@@H](Cc1c[nH]c2ccccc12)C(=O)NCCO)C(C)C)C(C)C)C(C)C)C(C)C)C(C)C` [compound 5393] (For-VGA[dL]A[dV]V[dV]W[dV]W[dL]W[dV]W-NHCH2CH2OH), for which the “H+/Na+ transport activity normalized against the value of 1 (1.00)” value (shortened to “H+/Na+ transport activity normalized”) in data set [1] was 1.32. The same compound came in with a cell viability/% in data set [2] of 100.0%. The antibacterial activity entry in data set [3] is on record as “+”.

Turning to `CC(C)C[C@@H](NC(=O)[C@H](C)NC(=O)[C@H](NC(=O)[C@H](C)NC(=O)CNC(=O)[C@@H](NC=O)C(C)C)C(C)C)C(=O)N[C@H](C(=O)N[C@@H](C(=O)N[C@@H](Cc1c[nH]c2ccccc12)C(=O)N[C@@H](C(=O)N[C@@H](Cc1c[nH]c2ccccc12)C(=O)N[C@H](CC(C)C)C(=O)N[C@@H](Cc1c[nH]c2ccccc12)C(=O)N[C@H](CC(C)C)C(=O)N[C@@H](Cc1c[nH]c2ccccc12)C(=O)NCCO)C(C)C)C(C)C)C(C)C` [compound 5463] (For-VGA[dV]A[dL]V[dV]W[dV]W[dL]W[dL]W-NHCH2CH2OH), the “H+/Na+ transport activity normalized” value in data set [1] is 1.11. The compound also displayed a cell viability/% in data set [2] of 100.0%. Further, in data set [3], the antibacterial activity result was “++”.

`CC(C)C[C@@H](NC(=O)[C@H](C)NC(=O)CNC(=O)[C@@H](NC=O)C(C)C)C(=O)N[C@@H](C)C(=O)N[C@@H](C(=O)N[C@H](C(=O)N[C@@H](C(=O)N[C@@H](Cc1c[nH]c2ccccc12)C(=O)N[C@@H](C(=O)N[C@@H](Cc1c[nH]c2ccccc12)C(=O)N[C@H](CC(C)C)C(=O)N[C@@H](Cc1c[nH]c2ccccc12)C(=O)N[C@H](CC(C)C)C(=O)N[C@@H](Cc1c[nH]c2ccccc12)C(=O)NCCO)C(C)C)[C@H](C)O)C(C)C)C(C)C` [compound 5482] (For-VGA[dL]A[dV]V[dT]W[dV]W[dL]W[dL]W-NHCH2CH2OH): the “H+/Na+ transport activity normalized” value in data set [1] is 1.25. The cell viability/% in data set [2] was 100.0%. Besides, the antibacterial activity result in data set [3] is “-”.

Take `CC(C)C[C@@H](NC(=O)[C@H](C)NC(=O)CNC(=O)[C@@H](NC=O)C(C)C)C(=O)N[C@@H](C)C(=O)N[C@H](CC(C)C)C(=O)N[C@H](C(=O)N[C@@H](C(=O)N[C@@H](Cc1c[nH]c2ccccc12)C(=O)N[C@@H](C(=O)N[C@@H](Cc1c[nH]c2ccccc12)C(=O)N[C@@H](C(=O)N[C@@H](Cc1c[nH]c2ccccc12)C(=O)N[C@@H](C(=O)N[C@@H](Cc1c[nH]c2ccccc12)C(=O)NCCO)C(C)C)C(C)C)C(C)C)C(C)C)C(C)C` [compound 5488] (For-VGA[dL]A[dL]V[dV]W[dV]W[dV]W[dV]W-NHCH2CH2OH): the “H+/Na+ transport activity normalized” value in data set [1] worked out at 1.23. This compound also displayed a cell viability/% in data set [2] of 36.4%. Further, the antibacterial activity result in data set [3] is listed as “+”.

Regarding `CNC(=O)C[C@@H](NC(=O)[C@@H](NC(=O)[C@@H](CC(C)C)NC(=O)[C@H](C)NC(=O)[C@@H](CC(C)C)NC(=O)[C@H](C)NC(=O)CNC(=O)[C@@H](NC=O)C(C)C)C(C)C)C(=O)N[C@@H](Cc1c[nH]c2ccccc12)C(=O)N[C@H](CC(C)C)C(=O)N[C@@H](Cc1c[nH]c2ccccc12)C(=O)N[C@H](CC(C)C)C(=O)N[C@@H](Cc1c[nH]c2ccccc12)C(=O)N[C@@H](C(=O)N[C@@H](Cc1c[nH]c2ccccc12)C(=O)NCCO)C(C)C` [compound 5491] (For-VGA[dL]A[dL]V[dD](NHMe)W[dL]W[dL]W[dV]W-NHCH2CH2OH), the “H+/Na+ transport activity normalized” value in data set [1] amounted to 1.24. The cell viability/% in data set [2] came out at 100.0%. Further, in data set [3], the antibacterial activity entry is reported as “-”.

For `CC(C)C[C@@H](NC(=O)[C@H](C)NC(=O)CNC(=O)[C@@H](NC=O)C(C)C)C(=O)N[C@@H](C)C(=O)N[C@H](CC(C)C)C(=O)N[C@H](C(=O)N[C@H](CC(C)C)C(=O)N[C@@H](Cc1c[nH]c2ccccc12)C(=O)N[C@@H](C(=O)N[C@@H](Cc1c[nH]c2ccccc12)C(=O)N[C@H](CC(C)C)C(=O)N[C@@H](Cc1c[nH]c2ccccc12)C(=O)N[C@@H](C(=O)N[C@@H](Cc1c[nH]c2ccccc12)C(=O)NCCO)[C@H](C)O)C(C)C)C(C)C` [compound 5508] (For-VGA[dL]A[dL]V[dL]W[dV]W[dL]W[dT]W-NHCH2CH2OH), the “H+/Na+ transport activity normalized” value in data set [1] is given as 1.19. Moreover, in data set [2], the cell viability/% is 100.0%. The antibacterial activity entry in data set [3] is reported as “-”.

Regarding `CC(C)C[C@@H](NC(=O)[C@H](C)NC(=O)[C@H](NC(=O)[C@H](C)NC(=O)CNC(=O)[C@@H](NC=O)C(C)C)[C@H](C)O)C(=O)N[C@H](C(=O)N[C@@H](C(=O)N[C@@H](Cc1c[nH]c2ccccc12)C(=O)N[C@H](CC(C)C)C(=O)N[C@@H](Cc1c[nH]c2ccccc12)C(=O)N[C@H](CC(C)C)C(=O)N[C@@H](Cc1c[nH]c2ccccc12)C(=O)N[C@@H](C(=O)N[C@@H](Cc1c[nH]c2ccccc12)C(=O)NCCO)C(C)C)C(C)C)C(C)C` [compound 5522] (For-VGA[dT]A[dL]V[dV]W[dL]W[dL]W[dV]W-NHCH2CH2OH), the “H+/Na+ transport activity normalized” value in data set [1] was 1.27. This compound also had a cell viability/% in data set [2] of 100.0%. Besides, the antibacterial activity result in data set [3] is on record as “-”.

For the compound `CC(C)C[C@@H](NC(=O)[C@H](Cc1c[nH]c2ccccc12)NC(=O)[C@H](NC(=O)[C@H](Cc1c[nH]c2ccccc12)NC(=O)[C@@H](CC(C)C)NC(=O)[C@@H](NC(=O)[C@H](NC(=O)[C@H](C)NC(=O)[C@H](NC(=O)[C@H](C)NC(=O)CNC(=O)[C@@H](NC=O)C(C)C)C(C)C)C(C)C)C(C)C)C(C)C)C(=O)N[C@@H](Cc1c[nH]c2ccccc12)C(=O)N[C@@H](C(=O)N[C@@H](Cc1c[nH]c2ccccc12)C(=O)NCCO)C(C)C` [compound 5526] (For-VGA[dV]A[dV]V[dL]W[dV]W[dL]W[dV]W-NHCH2CH2OH), the “H+/Na+ transport activity normalized” value in data set [1] was determined as 1.17. In data set [2], this compound registered a cell viability/% of 100.0%. Besides, the antibacterial activity result in data set [3] is listed as “+”.

As for `CNC(=O)C[C@@H](NC(=O)[C@H](Cc1c[nH]c2ccccc12)NC(=O)[C@@H](CC(C)C)NC(=O)[C@H](Cc1c[nH]c2ccccc12)NC(=O)[C@H](NC(=O)[C@H](Cc1c[nH]c2ccccc12)NC(=O)[C@@H](CC(C)C)NC(=O)[C@@H](NC(=O)[C@H](NC(=O)[C@H](C)NC(=O)[C@H](NC(=O)[C@H](C)NC(=O)CNC(=O)[C@@H](NC=O)C(C)C)C(C)C)C(C)C)C(C)C)C(C)C)C(=O)N[C@@H](Cc1c[nH]c2ccccc12)C(=O)NCCO` [compound 5538] (For-VGA[dV]A[dV]V[dL]W[dV]W[dL]W[dD](NHMe)W-NHCH2CH2OH), the “H+/Na+ transport activity normalized” value in data set [1] was 1.06. In data set [2], this compound displayed a cell viability/% of 100.0%. Also, the antibacterial activity result in data set [3] is recorded as “-”.

On to `CC(C)C[C@@H](NC(=O)[C@H](Cc1c[nH]c2ccccc12)NC(=O)[C@H](NC(=O)[C@@H](NC(=O)[C@H](NC(=O)[C@H](C)NC(=O)[C@H](NC(=O)[C@H](C)NC(=O)CNC(=O)[C@@H](NC=O)C(C)C)C(C)C)C(C)C)C(C)C)C(C)C)C(=O)N[C@@H](Cc1c[nH]c2ccccc12)C(=O)N[C@@H](C(=O)N[C@@H](Cc1c[nH]c2ccccc12)C(=O)N[C@@H](C(=O)N[C@@H](Cc1c[nH]c2ccccc12)C(=O)NCCO)C(C)C)C(C)C` [compound 5570] (For-VGA[dV]A[dV]V[dV]W[dL]W[dV]W[dV]W-NHCH2CH2OH), for which the “H+/Na+ transport activity normalized” value in data set [1] is given as 1.26. In data set [2], this compound showed a cell viability/% of 96.8%. For the same compound, the antibacterial activity entry in data set [3] is on record as “++”.

In the case of `CNC(=O)C[C@@H](NC(=O)[C@H](Cc1c[nH]c2ccccc12)NC(=O)[C@H](NC(=O)[C@H](Cc1c[nH]c2ccccc12)NC(=O)[C@H](NC(=O)[C@H](Cc1c[nH]c2ccccc12)NC(=O)[C@@H](CC(C)C)NC(=O)[C@@H](NC(=O)[C@H](NC(=O)[C@H](C)NC(=O)[C@H](NC(=O)[C@H](C)NC(=O)CNC(=O)[C@@H](NC=O)C(C)C)C(C)C)C(C)C)C(C)C)C(C)C)C(C)C)C(=O)N[C@@H](Cc1c[nH]c2ccccc12)C(=O)NCCO` [compound 5604] (For-VGA[dV]A[dV]V[dL]W[dV]W[dV]W[dD](NHMe)W-NHCH2CH2OH), the “H+/Na+ transport activity normalized” value in data set [1] is given as 1.03. Also, the cell viability/% in data set [2] is 69.7%. The antibacterial activity entry in data set [3] is reported as “-”.

Consider `CC(C)C[C@@H](NC(=O)[C@H](C)NC(=O)CNC(=O)[C@@H](NC=O)C(C)C)C(=O)N[C@@H](C)C(=O)N[C@H](CC(C)C)C(=O)N[C@H](C(=O)N[C@H](CC(C)C)C(=O)N[C@@H](Cc1c[nH]c2ccccc12)C(=O)N[C@@H](C(=O)N[C@@H](Cc1c[nH]c2ccccc12)C(=O)N[C@@H](C(=O)N[C@@H](Cc1c[nH]c2ccccc12)C(=O)N[C@@H](C(=O)N[C@@H](Cc1c[nH]c2ccccc12)C(=O)NCCO)C(C)C)C(C)C)C(C)C)C(C)C` [compound 5611] (For-VGA[dL]A[dL]V[dL]W[dV]W[dV]W[dV]W-NHCH2CH2OH), for which the “H+/Na+ transport activity normalized” value in data set [1] is 1.17. The same compound had a cell viability/% in data set [2] of 3.9%. The antibacterial activity result in data set [3] is on record as “+”.

(Values after paper PMC7531004, “Discovery of gramicidin A analogues with altered activities by multidimensional screening of a one-bead-one-compound library” (Nature Communications, 2020).)
